Laboratory results taken from patent publication US11912703B2, “6-azaindole compounds” (BRISTOL-MYERS SQUIBB COMPANY, priority 2017, dated 2024).
Like-named read-outs stand apart in the source and are kept apart here.

Tests used:
human TLR9 = human TLR9 (Homo sapiens (Human), UniProt Q9NR96); assay: TLR9 inhibition reporter assay (HEK-Blue SEAP);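 also: SEAP driven by IFN-β minimal promoter carrying five NF-κB and AP-1 sites, 22 h at 37 °C, compounds 0.05 nM–50 µM, inhibition scaled between agonist-plus-DMSO and reference-inhibitor wells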
Description: (§1) HEK-Blue™-cells (Invivogen) overexpressing human TLR7, TLR8 or TLR9 receptors were used for screening inhibitors of these receptors using an inducible SEAP (secreted embryonic alkaline phosphatase) reporter gene under the control of the IFN-β minimal promoter fused to five NF-κB and AP-1-binding sites. Briefly, cells are seeded into Greiner 384 well plates (15000 cells per well for TLR7, 20,000 for TLR8 and 25,000 for TLR9) and then treated with test compounds in DMSO to yield a final dose response concentration range of 0.05 nM-50 μM. After a 30 minute compound pre-treatment at room temperature, the cells are then stimulated with a TLR7 ligand (gardiquimod at a final concentration of 7.5 μM), TLR8 ligand (R848 at a final concentration of 15.9 μM) or TLR9 ligand (ODN2006 at a final concentration of 5 nM) to activate NF-κB and AP-1 which induce the production of SEAP. After a 22 hour incubation at 37° C., 500 CO2, SEAP levels are determined with the addition of HEK-Blue™ Detection reagent (Invivogen), a cell culture medium that allows for detection of SEAP, according to manufacturer's specifications.

human TLR7 = human TLR7 (Homo sapiens (Human), UniProt Q9NYK1); assay: TLR7 inhibition reporter assay (HEK-Blue SEAP); format: cell-based; settings: HEK-Blue cells overexpressing human TLR7, gardiquimod 7.5 μM stimulation
human TLR8 = human TLR8 (Homo sapiens (Human), UniProt Q9NR97); assay: TLR8 inhibition reporter assay (HEK-Blue SEAP);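 also: SEAP driven by IFN-β minimal promoter with five NF-κB and AP-1 sites, compounds tested 0.05 nM to 50 µM, 22 h incubation, inhibition relative to agonist plus DMSO wells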
Description: as §1

[1] = read-out: TLR9 IC50; HEK-Blue cells overexpressing human TLR9, ODN2006 5 nM stimulation, SEAP reporter
[2] = read-out: TLR8 IC50; HEK-Blue cells overexpressing human TLR8, R848 15.9 μM stimulation, SEAP reporter
[3] = read-out: TLR9 IC50; HEK-Blue cells overexpressing human TLR9; ODN2006 5 nM stimulation; SEAP reporter
[4] = read-out: TLR8 IC50; HEK-Blue cells overexpressing human TLR8; R848 15.9 μM stimulation; SEAP reporter

Sequence of human TLR8 (Q9NR97 27-1041): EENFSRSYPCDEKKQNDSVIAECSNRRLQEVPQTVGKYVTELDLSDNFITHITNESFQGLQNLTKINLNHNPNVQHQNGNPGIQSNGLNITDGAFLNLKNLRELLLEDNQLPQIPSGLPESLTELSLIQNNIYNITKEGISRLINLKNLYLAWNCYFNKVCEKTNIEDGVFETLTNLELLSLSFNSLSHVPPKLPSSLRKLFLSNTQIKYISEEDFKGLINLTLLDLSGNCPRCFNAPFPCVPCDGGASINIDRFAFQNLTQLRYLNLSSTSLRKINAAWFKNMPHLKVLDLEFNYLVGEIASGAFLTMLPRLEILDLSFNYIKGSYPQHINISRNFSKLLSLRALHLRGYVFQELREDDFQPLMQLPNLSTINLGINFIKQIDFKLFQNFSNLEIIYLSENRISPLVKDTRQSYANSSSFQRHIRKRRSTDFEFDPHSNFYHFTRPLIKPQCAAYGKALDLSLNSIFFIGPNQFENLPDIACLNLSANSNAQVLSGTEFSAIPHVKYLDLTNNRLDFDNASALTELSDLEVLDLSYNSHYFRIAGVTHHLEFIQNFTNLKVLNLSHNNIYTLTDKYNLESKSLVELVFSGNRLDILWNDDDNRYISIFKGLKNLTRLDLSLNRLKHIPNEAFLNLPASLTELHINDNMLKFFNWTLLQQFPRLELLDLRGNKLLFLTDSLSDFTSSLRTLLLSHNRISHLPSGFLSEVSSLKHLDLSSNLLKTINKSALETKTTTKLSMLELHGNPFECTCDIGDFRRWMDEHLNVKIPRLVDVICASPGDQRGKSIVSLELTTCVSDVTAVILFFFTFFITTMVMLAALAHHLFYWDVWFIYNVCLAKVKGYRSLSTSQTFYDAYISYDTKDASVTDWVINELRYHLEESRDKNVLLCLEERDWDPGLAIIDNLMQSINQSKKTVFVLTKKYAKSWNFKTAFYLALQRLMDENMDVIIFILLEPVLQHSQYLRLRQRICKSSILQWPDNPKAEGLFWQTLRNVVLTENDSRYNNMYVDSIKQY
Sequence of human TLR9 (Q9NR96 26-1032): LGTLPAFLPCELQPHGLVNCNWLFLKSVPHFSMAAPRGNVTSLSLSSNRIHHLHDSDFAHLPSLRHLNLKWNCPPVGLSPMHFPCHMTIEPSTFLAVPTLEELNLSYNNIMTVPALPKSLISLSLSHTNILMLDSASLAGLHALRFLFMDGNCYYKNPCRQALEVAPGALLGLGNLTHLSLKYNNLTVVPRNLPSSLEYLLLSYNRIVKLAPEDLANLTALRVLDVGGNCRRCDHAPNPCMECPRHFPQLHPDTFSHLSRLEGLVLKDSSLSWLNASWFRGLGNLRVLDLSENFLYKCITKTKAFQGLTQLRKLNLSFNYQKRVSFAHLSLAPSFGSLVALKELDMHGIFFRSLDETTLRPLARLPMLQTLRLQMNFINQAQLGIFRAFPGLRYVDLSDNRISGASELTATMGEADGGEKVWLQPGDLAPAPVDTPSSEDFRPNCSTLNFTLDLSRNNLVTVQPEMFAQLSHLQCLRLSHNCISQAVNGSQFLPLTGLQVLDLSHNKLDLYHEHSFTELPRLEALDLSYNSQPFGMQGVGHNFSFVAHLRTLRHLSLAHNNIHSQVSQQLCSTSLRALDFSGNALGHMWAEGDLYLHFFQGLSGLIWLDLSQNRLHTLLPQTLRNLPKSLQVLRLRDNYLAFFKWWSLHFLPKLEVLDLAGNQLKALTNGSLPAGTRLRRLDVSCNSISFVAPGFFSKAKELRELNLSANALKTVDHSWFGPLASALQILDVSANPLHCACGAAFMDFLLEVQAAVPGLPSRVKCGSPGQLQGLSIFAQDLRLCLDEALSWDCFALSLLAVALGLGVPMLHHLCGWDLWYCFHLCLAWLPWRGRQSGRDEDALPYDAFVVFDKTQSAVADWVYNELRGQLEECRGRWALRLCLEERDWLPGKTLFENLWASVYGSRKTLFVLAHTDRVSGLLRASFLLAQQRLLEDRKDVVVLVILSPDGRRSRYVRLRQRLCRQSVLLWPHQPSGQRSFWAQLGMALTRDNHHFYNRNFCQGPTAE
Sequence of human TLR7 (Q9NYK1 27-1049): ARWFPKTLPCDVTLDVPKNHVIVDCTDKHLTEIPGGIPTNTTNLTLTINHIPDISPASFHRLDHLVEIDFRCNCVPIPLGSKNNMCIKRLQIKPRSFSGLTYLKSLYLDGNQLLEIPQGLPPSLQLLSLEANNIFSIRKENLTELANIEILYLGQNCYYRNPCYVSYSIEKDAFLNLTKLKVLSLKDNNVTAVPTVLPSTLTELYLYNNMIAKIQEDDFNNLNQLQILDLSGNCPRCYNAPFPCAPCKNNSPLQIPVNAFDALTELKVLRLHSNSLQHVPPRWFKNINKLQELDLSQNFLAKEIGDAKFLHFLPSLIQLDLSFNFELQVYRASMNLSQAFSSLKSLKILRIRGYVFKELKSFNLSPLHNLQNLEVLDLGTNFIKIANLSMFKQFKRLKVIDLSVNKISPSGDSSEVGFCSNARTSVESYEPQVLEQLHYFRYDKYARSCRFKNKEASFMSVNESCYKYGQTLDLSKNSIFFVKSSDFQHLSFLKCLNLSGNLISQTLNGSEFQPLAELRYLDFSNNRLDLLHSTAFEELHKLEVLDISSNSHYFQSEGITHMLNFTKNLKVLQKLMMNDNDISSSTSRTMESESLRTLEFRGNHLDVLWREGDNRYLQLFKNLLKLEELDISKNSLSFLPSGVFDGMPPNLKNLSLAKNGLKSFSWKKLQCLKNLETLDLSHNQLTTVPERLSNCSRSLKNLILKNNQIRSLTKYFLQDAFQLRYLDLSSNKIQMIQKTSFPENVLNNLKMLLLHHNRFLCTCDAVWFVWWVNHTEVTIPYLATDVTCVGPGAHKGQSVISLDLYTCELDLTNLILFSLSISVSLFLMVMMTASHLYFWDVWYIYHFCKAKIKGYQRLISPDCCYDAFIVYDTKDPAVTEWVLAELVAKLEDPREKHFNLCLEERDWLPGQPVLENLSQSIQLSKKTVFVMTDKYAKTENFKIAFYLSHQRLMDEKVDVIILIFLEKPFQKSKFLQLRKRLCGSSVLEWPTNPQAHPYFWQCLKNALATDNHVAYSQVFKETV

Cc1c(-c2[nH]c3cnc(C4CCC(N(C)C(C)C)CC4)c(F)c3c2C(C)C)cn2ncnc2c1C (stereo not drawn) [Example 168]
IC50 (human TLR9; [1]): 17.5 µM | IC50 (human TLR7): 0.0036 µM | IC50 (human TLR8; [2]): 0.0045 µM

Cc1c(-c2[nH]c3cnc(N4CCC(NC5CCOCC5)CC4)c(C)c3c2C(C)C)cn2ncnc2c1C [Example 205]
IC50 (human TLR9; [1]): 0.6 µM | IC50 (human TLR7): 0.0012 µM | IC50 (human TLR8; [2]): 0.00055 µM

Cc1c(-c2[nH]c3cnc(C4CCC(NC5CCOCC5)CC4)c(F)c3c2C(C)C)cn2ncnc2c1C (stereo not drawn) [Example 232]
IC50 (human TLR9; [3]): 4.5 µM | IC50 (human TLR7): 0.011 µM | IC50 (human TLR8; [4]): 0.0032 µM

Cc1c(-c2[nH]c3cnc(N4CCC(NC(C)C)CC4)c(C)c3c2C(C)C)cn2ncnc2c1C [Example 113]
IC50 (human TLR9; [1]): 0.51 µM | IC50 (human TLR7): 0.00072 µM | IC50 (human TLR8; [2]): 0.00057 µM

COc1cc(-c2[nH]c3cnc(N4CC5(CN(CC6CC6)C5)C4)c(F)c3c2C(C)C)cn2ncnc12 [Example 374]
IC50 (human TLR9; [1]): 5.47 µM | IC50 (human TLR7): 0.006 µM | IC50 (human TLR8; [2]): 0.039 µM

CNC(=O)CN(C)C1CCC(c2ncc3[nH]c(-c4cc(OC)c5ncnn5c4)c(C(C)C)c3c2F)CC1 (stereo not drawn) [Example 131]
IC50 (human TLR9; [1]): 11.4 µM | IC50 (human TLR7): 0.005 µM | IC50 (human TLR8; [2]): 0.0079 µM

Cc1cc(-c2[nH]c3cnc(N4CCC(N(C)CC(N)=O)CC4)c(F)c3c2C(C)C)cn2ncnc12 [Example 158]
IC50 (human TLR9; [1]): 17.5 µM | IC50 (human TLR7): 0.0014 µM | IC50 (human TLR8; [2]): 0.0021 µM

Cc1cc(-c2[nH]c3cnc(C4CCC(N(C)C(C)C)CC4)c(F)c3c2C(C)C)cn2ncnc12 (stereo not drawn) [Example 108]
IC50 (human TLR9; [1]): 2.76 µM | IC50 (human TLR7): 0.0021 µM | IC50 (human TLR8; [2]): 0.004 µM

CCN(C)C1CCC(c2ncc3[nH]c(-c4cc(OC)c5ncnn5c4)c(C(C)C)c3c2C)CC1 (stereo not drawn) [Example 116]
IC50 (human TLR9; [1]): 0.766 µM | IC50 (human TLR7): 0.01 µM | IC50 (human TLR8; [2]): 0.042 µM

CCN(C)C1CCN(c2ncc3[nH]c(-c4cn5ncnc5c(C)c4C)c(C(C)C)c3c2C)CC1 [Example 55]
IC50 (human TLR9; [1]): 0.769 µM | IC50 (human TLR7): 0.0013 µM | IC50 (human TLR8; [2]): 0.0013 µM

CNCC(=O)N1CCN(c2ncc3[nH]c(-c4cc(OC)c5ncnn5c4)c(C(C)C)c3c2Cl)CC1 [Example 291]
IC50 (human TLR9; [1]): 0.494 µM | IC50 (human TLR7): 0.003 µM | IC50 (human TLR8; [2]): 0.0049 µM

COc1cc(-c2[nH]c3cnc(N4CCN(CCS(C)(=O)=O)CC4)cc3c2C(C)C)cn2ncnc12 [Example 290]
IC50 (human TLR9; [1]): > 50 µM | IC50 (human TLR7): 0.02 µM | IC50 (human TLR8; [2]): 0.0071 µM

Cc1c(-c2[nH]c3cnc(N4CC5(CN(CCS(C)(=O)=O)C5)C4)c(F)c3c2C(C)C)cn2ncnc2c1C [Example 396]
IC50 (human TLR9; [1]): > 50 µM | IC50 (human TLR7): 0.099 µM | IC50 (human TLR8; [2]): 0.019 µM

COc1cc(-c2[nH]c3cnc(N4CCC(N(C)CC(=O)N(C)C)CC4)c(F)c3c2C(C)C)cn2ncnc12 [Example 72]
IC50 (human TLR9; [1]): 6.08 µM | IC50 (human TLR7): 0.0015 µM | IC50 (human TLR8; [2]): 0.0013 µM

Cc1c(-c2[nH]c3cnc(N4CCN(C(=O)CN5CCOCC5)C[C@H]4C)c(F)c3c2C(C)C)cn2ncnc2c1C [Example 471]
IC50 (human TLR9; [3]): > 50 µM | IC50 (human TLR7): 0.027 µM | IC50 (human TLR8; [4]): 0.0027 µM

COc1cc(-c2[nH]c3cnc(N4CCN(CC(N)=O)C[C@H]4C)c(F)c3c2C(C)C)cn2ncnc12 [Example 447]
IC50 (human TLR9; [1]): > 50 µM | IC50 (human TLR7): 0.011 µM | IC50 (human TLR8; [2]): 0.032 µM

Cc1cc(-c2[nH]c3cnc(C4CCC(N5CC6(COC6)C5)CC4)c(F)c3c2C(C)C)cn2ncnc12 (stereo not drawn) [Example 133]
IC50 (human TLR9; [1]): 1.36 µM | IC50 (human TLR7): 0.00052 µM | IC50 (human TLR8; [2]): 0.0012 µM

Cc1cc(-c2[nH]c3cnc(C4CCC(NC5CCOCC5)CC4)c(F)c3c2C(C)C)cn2ncnc12 (stereo not drawn) [Example 110]
IC50 (human TLR9; [1]): 1.16 µM | IC50 (human TLR7): 0.002 µM | IC50 (human TLR8; [2]): 0.0013 µM

CCCN1CCN(c2ncc3[nH]c(-c4cn5ncnc5c(C)c4C)c(C(C)C)c3c2F)[C@H](C)C1 [Example 455]
IC50 (human TLR9; [3]): 14.6 µM | IC50 (human TLR7): 0.00059 µM | IC50 (human TLR8; [4]): 0.00017 µM

COc1cc(-c2[nH]c3cnc(C4CCC(N5CCC5)CC4)cc3c2C(C)C)cn2ncnc12 (stereo not drawn) [Example 324]
IC50 (human TLR9; [1]): 0.283 µM | IC50 (human TLR7): 0.003 µM | IC50 (human TLR8; [2]): 0.02 µM

Cc1cc(-c2[nH]c3cnc(C4CCN(CCS(C)(=O)=O)CC4)c(F)c3c2C(C)C)cn2ncnc12 [Example 149]
IC50 (human TLR9; [1]): 13.1 µM | IC50 (human TLR7): 0.0036 µM | IC50 (human TLR8; [2]): 0.0051 µM

CCN(C)C1CCC(c2cc3c(C(C)C)c(-c4cc(OC)c5ncnn5c4)[nH]c3cn2)CC1 (stereo not drawn) [Example 331]
IC50 (human TLR9; [1]): 3.3 µM | IC50 (human TLR7): 0.263 µM | IC50 (human TLR8; [2]): 0.637 µM

COc1cc(-c2[nH]c3cnc(N4CCC(N(C)CC(F)F)CC4)c(F)c3c2C(C)C)cn2ncnc12 [Example 189]
IC50 (human TLR9; [1]): 30.7 µM | IC50 (human TLR7): 0.02 µM | IC50 (human TLR8; [2]): 0.016 µM

COc1cc(-c2[nH]c3cnc(N4CC5(CN(CC6CCOCC6)C5)C4)c(F)c3c2C(C)C)cn2ncnc12 [Example 371]
IC50 (human TLR9; [1]): 5.48 µM | IC50 (human TLR7): 0.009 µM | IC50 (human TLR8; [2]): 0.0059 µM

Cc1c(-c2[nH]c3cnc(N4CC5(C4)CN(C4CCOCC4)C5)c(F)c3c2C(C)C)cn2ncnc2c1C [Example 401]
IC50 (human TLR9; [1]): 6.44 µM | IC50 (human TLR7): 0.027 µM | IC50 (human TLR8; [2]): 0.0044 µM

COCCN1CCC(c2ncc3[nH]c(-c4cc(C)nc(C)c4)c(C(C)C)c3c2F)CC1 [Example 216]
IC50 (human TLR9; [3]): 4.65 µM | IC50 (human TLR7): 0.014 µM | IC50 (human TLR8; [4]): 0.012 µM
